# Experimental data taken from US20200239398A1, “METHYLENE-CYCLOALKYLACETATE DERIVATIVES AND THEIR USE IN TREATMENT OF NEUROTROPIC CONDITIONS” (Yissum Research Development Company of The Hebrew …, priority 2018, published 2020).
# B1: NGF: Tissue culture grade mouse β-NGF from Alomone Labs; positive control (protein, UniProt P01139 122-241, looked up)
# Beta-nerve growth factor: SSTHPVFHMGEFSVCDSVSVWVGDKTTATDIKGKEVTVLAEVNINNSVFRQYFFETKCRASNPVESGCRGIDSKHWNSYCTTTHTFVKALTTDEKQAAWRFIRIDTACVCVLSRKATRRG
# modifications: Beta-nerve growth factor
# notes: Tissue culture grade mouse β-NGF from Alomone Labs; positive control
# How the values were obtained:
# PC12 cells [1] = experiment: PC12 cell neurotropic assay (neurite outgrowth); format: cell-based, rat; details: 10 μM; for Neurotropic effect (mean ± SE) Seven Days Df / Neurotropic effect (mean ± SE) Two Days Df: PC12 cells, Df = fractal dimension of neurite outgrowth; for Neurotropic effect (mean ± SE) Seven Days Df: seven days of treatment; for Neurotropic effect Seven Days NGF (%) / Neurotropic effect Two Days NGF (%): relative to NGF 50 ng/ml; for Neurotropic effect (mean ± SE) Two Days Df: two days of treatment; for inducing fast neurite outgrowth (in words): after two days of treatment
# Protocol: PC12 cells were grown in T-200 flasks in high glucose (4.5 gr/L) DMEM medium supplemented with 7% FCS, 7% horse serum and 1% penicillin and streptomycin. Cells were incubated at 37° C. in a humidified incubator containing 6% CO2. All experiments were carried out in a clean room, according to ISO7 requirements (10,000 particles/m^3).
# Tissue culture Falcon plates were coated with 200 μg/ml collagen type 1 and placed under UV light for 30 minutes for sterilization. Thereafter, one ml of PC12 cell suspension (5000 cells/well) was applied in 12 or 24 well plate, respectively. The cultures were grown in the incubator two days before exposure to investigated compound.
# This experimental procedure contained two controls. The first consisted of untreated cells (negative control), representing the random effect: “noise signal”—the ability of cells to spontaneously grow neurite outgrowth which in seven days are of a length less than two-fold cell diameter. Also, negative controls consisted of cultures treated with 1% DMSO, solvent used to solubilize all compounds. The positive control consisted of cells treated with 50 ng/ml NGF, indicating maximal neurite outgrowth that can be achieved in this model. The experimental group consisted of PC12 cells treated with synthetic compounds. In each experiment, after two and seven days, six cultures were evaluated for neurotropic effect. These consecutive observations allow measurement of the progress of neurite outgrowth elongation and the percentage of cells with neurites.^31
# In order to assess neurotropic effect, the neurite outgrowth length in each culture was quantified. For this purpose, each culture was placed under an inverted microscope and photographed by the attached camera. Each well was photographed at three to five representative areas. After acquiring the photos, they were analyzed by ImageJ, NIH software. The neurite outgrowth was estimated by fractal dimension (Df), a statistical parameter that describes the fractional space (area and length) filled by neurite outgrowth. Df ranged from 0 to 1.20. This method estimates the amount of picsel covered by neurites/cells compared to empty space per square field, and therefore plotting log (number of square boxes) vs. log (size in pixels) relationship generates a linear curve with Df representing the slope of the curve. Every photograph that was taken, was opened in a Photoshop software and a new layer was generated on it. Using a 5-pixel wide digital pencil tool, all the outgrowths were marked and the layer with the markers (outgrowth network) was saved in a 0-255 gray scale as described in FIG. 2. Then, the saved layer was opened by ImageJ NIH software. The software “skeletonized” the layer, measured the length and complexity of every outgrowth in a fractal box count and calculated the fractional dimension parameter (Df).^32
# Each experiment was performed in duplicates and repeated three to four times (n=6-8). By using SPSS software, one way ANOVA was performed for the fractional dimension of each compound, in order to evaluate the neurotropic effect. In case of significance, Bonferroni post-hoc analysis was performed. The results were considered significant when p<0.05.
# PC12 cells [2] = experiment: Cytotoxicity (cell morphology, LDH release); format: cell-based; details: 10 μM
# [3] = molecular target: T1, Nicotinic acetylcholine Receptor-alpha-4 beta-2 (nAChR (a4/b2)) (Homo sapiens, UniProt P17787+P43681); experiment: cell-based; format: cell-based; details: Blocker mode; reference compound; read-out: RC50 (the source's name)
# T1 construct: DiscoverX (SAFETYscan contract panel)
# T1 sequence (P43681 29-627 limits assumed): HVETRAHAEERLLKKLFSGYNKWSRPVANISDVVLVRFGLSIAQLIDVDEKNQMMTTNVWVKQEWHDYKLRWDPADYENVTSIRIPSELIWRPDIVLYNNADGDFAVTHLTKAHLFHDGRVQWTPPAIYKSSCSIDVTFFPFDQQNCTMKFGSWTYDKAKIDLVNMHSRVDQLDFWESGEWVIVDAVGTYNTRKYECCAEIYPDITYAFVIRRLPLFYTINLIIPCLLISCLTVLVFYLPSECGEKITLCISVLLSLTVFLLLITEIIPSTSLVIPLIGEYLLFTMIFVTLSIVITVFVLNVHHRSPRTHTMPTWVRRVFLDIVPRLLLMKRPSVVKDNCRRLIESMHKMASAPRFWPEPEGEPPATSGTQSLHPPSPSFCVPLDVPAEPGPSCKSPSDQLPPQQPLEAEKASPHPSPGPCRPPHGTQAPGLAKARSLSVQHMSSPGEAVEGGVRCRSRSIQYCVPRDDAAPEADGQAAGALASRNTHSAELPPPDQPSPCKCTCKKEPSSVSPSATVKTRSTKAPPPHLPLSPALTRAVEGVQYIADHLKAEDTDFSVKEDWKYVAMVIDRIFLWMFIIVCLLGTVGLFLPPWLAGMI
# T1 sequence (P17787 26-502): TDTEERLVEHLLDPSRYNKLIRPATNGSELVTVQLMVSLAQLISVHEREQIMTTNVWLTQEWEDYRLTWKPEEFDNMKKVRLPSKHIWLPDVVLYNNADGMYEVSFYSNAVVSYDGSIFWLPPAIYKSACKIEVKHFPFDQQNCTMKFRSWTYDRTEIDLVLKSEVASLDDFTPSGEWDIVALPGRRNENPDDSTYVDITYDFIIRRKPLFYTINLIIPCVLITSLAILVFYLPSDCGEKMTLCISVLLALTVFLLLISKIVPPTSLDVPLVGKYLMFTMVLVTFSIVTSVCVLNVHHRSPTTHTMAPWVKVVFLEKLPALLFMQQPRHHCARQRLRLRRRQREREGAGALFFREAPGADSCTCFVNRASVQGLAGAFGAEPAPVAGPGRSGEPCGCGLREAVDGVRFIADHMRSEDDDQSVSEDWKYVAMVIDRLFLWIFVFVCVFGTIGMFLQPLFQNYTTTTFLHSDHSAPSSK
# [4] = molecular target: Gamma-aminobutyric acid Receptor A (GABAA); format: cell-based; details: Blocker mode; reference compound; read-out: RC50 (the source's name)
# PC12 cells [5] = experiment: Additive neurotropic effect between HU-MCA-13 and NGF, PC12 neurite outgrowth; format: cell-based, rat
# Protocol: PC12 cells were cultured in T-200 flasks in high glucose (4.5 gr/L) DMEM medium supplemented with 7% FCS, 7% horse serum and 1% penicillin and streptomycin. Cells will be maintained at 37° C. in a humidified incubator containing 6% CO2. All experiments were carried out in a GLP clean room, according to ISO 7 requirements (10,000 particles/m^3). For neurotropic experiments, tissue culture Falcon plates were coated with 200 μg/ml collagen type 1 and placed under UV light for 30 minutes for sterilization. Thereafter, one ml of PC12 cell suspension (5000 cells/well) was applied in 12 or 24 well plate, respectively. The cultures were maintained in the incubator two days before exposure to investigated compound. Each neurotropic experiment contained two controls. The first consisted of untreated cells (negative control), representing the random effect: “noise signal”—the ability of cells to spontaneously grow neurite outgrowth which in seven days are of a length less than two-fold cell diameter. Also, negative controls consisted of cultures treated with 1% DMSO, solvent used to solubilize HU-MCA-13. The positive controls represented neuronal cultures treated with 50 ng/ml NGF, indicating maximal neurite outgrowth that can be achieved in this model. The experimental group consisted of PC12 cells treated with 10 μM HU-MCA-13. In each experiment, after two and seven days, six cultures will be evaluated for neurotropic effect. These consecutive observations allow measurement of the progress of neurite outgrowth elongation and the percentage of cells with neurites (Katzir et al. A quantitative bioassay for nerve growth factor, using PC12 clones expressing different levels of trkA receptors. J Mol Neurosci. 2002; 18(3):251-64). In order to assess neurotropic effect, the neurite outgrowth length in each culture was quantified. For this purpose, each culture was placed under an inverted microscope and photographed by the attached camera. Each well was photographed at three to five representative areas. After acquiring the photos, they were analyzed by ImageJ, NIH software. The neurite outgrowth was estimated by fractal dimension (Df), a statistical parameter that describes the fractional space (area and length) filled by neurite outgrowth. Df ranged from 0 to 1.20. This method estimated the amount of picsels covered by neurites/cells compared to empty space per square field, and therefore plotting log(number of square boxes) vs. log(size in pixels) relationship generated a linear curve with Df representing the slope of the curve. Every photograph that was taken, was opened in a Photoshop software and a new layer was generated on it. Using a 5-pixel wide digital pencil tool, all the outgrowths were marked and the layer with the markers (outgrowth network) were saved in a 0-255 gray scale. Thereafter, the saved layer was opened by ImageJ NIH software.
# Using an established PC12 neurotropic in vitro assay, the regenerative enhancing effect of HU-MCA-13 when applied concomitantly, together with NGF, a known neurotrophin was investigated. […] NGF alone, as positive control, at the conventional dose of 50 ng/ml enhanced neurite outgrowth to a Df value of 0.54 at 2 days and 0.4 at 7 days of treatment (FIG. 5). To verify a possible additive effect, the cultures with a mixture of low dose NGF (1 ng/ml generating 10% neurite outgrowth=Df of 0.05) and 1 μM HU-MCA-13 generating about 10-15% neurite outgrowth=Df of 0.04) were tested and found after 2 days a Df of 0.85 and after 7 days a Df of 0.38. NGF is released by hematopoietic cells during polyneuropathy inflammatory process, this finding further strength the possibility of a potential enhancement regenerative effect of this drug upon in vivo therapy.
# [6] = tested on: dorsal root ganglion (DRG) sensory neurons; experiment: Neurite outgrowth in dorsal root ganglion (DRG) explants; format: cell-based, mice
# Protocol: To perform these experiments, about 10 dorsal root ganglia (DRGs) were excised under sterile conditions and transferred to 0.25% Type IV collagenase (Sigma-Aldrich-Merck) in Dulbecco's Modified Eagle Medium (DMEM) at 37° C. for 45 min, followed by a 20-min incubation with 0.025% trypsin in DMEM, to digest the associated connective tissue surrounding the neurons. After plating the ganglia onto collagen (50 μg/ml)/laminin mixture (5 μg/ml)-coated tissue culture wells for 24 h, DRG neurons were cultured for additional 1-7 days in fresh Neurobasal A/B27 containing either 50 ng/ml NGF (positive control), blank medium (DMSO 1%) control and HU-MCA-13. The cultures were photographed; thereafter the ganglia were immune-stained for neuronal tubulin and again photographed using a fluorescent microscope. Image analysis was performed by a researcher blinded to the experimental conditions. Neurite outgrowth distance measured in micrometers, was quantified as for PC12 cultures.
# [7] = NGF 50 ng/ml, DRG explants, 5 days
molecule,measurement,setting,value
C=CCC1CC(c2ccccc2)C[C@@H](CC(=O)O)C1=C (stereo partly shown) [Compound 10],neurotropic activity (in words),PC12 cells [1]; PC12 cell neurotropic assay,no activity was detected
C=CCC1CC(C(C)(C)C)C[C@@H](CC(=O)O)C1=C (stereo partly shown) [Compound 12],Neurotropic effect (mean ± SE) Seven Days Df,PC12 cells [1],0.17 ± 0.16
same,Neurotropic effect Seven Days NGF (%),PC12 cells [1],37.0%
same,neurotropic activity (in words),PC12 cells [1]; after seven days of treatment,significant neurotropic activity
"C=CCC1CN(C(=O)OCC)CC(CC(=O)OC)C1=C (stereo not shown) [Compound 15, Ethyl-3-allyl-5-(2-methoxy-2-oxoethyl)-4-methylenepiperidine-1-carboxylate]",cytotoxicity (in words),PC12 cells [2],partial cytotoxic activity
C=C1C(C/C=C/c2ccccc2)CCC[C@H]1CC(=O)O (stereo partly shown) [Compound 8],cytotoxicity (in words),PC12 cells [2],partial cytotoxic activity
"COC(=O)CC1CCCC(CC=C(C)C)C1=O (stereo not shown) [Compound 21, Methyl 2-(3-(3-methylbut-2-en-1-yl)-2-oxocyclohexyl)acetate]",Neurotropic effect (mean ± SE) Seven Days Df,PC12 cells [1],0.01 ± 0.01
same,Neurotropic effect Seven Days NGF (%),PC12 cells [1],2.2%
"C=C(C)CC1CCCC(CC(=O)OC)C1=O (stereo not shown) [Compound 18, Methyl 2-(3-(2-methylallyl)-2-oxocyclohexyl)acetate]",cytotoxicity (in words),PC12 cells [2],partial cytotoxic activity
C=C1C(CC=C(C)C)CCC[C@H]1CC(=O)O (stereo partly shown) [Compound 6],Neurotropic effect (mean ± SE) Seven Days Df,PC12 cells [1],0.20 ± 0.17
same,Neurotropic effect (mean ± SE) Two Days Df,PC12 cells [1],0.14 ± 0.15
same,Neurotropic effect Seven Days NGF (%),PC12 cells [1],43.5%
same,Neurotropic effect Two Days NGF (%),PC12 cells [1],30.4%
same,neurotropic activity (in words),PC12 cells [1]; after seven days of treatment,significant neurotropic activity
same,inducing fast neurite outgrowth (in words),PC12 cells [1],most active
"C=CCC1CC(c2ccccc2)CC(CC(=O)OC)C1=C (stereo not shown) [Compound 11, Methyl 2-(3-allyl-2-methylene-5-phenylcyclohexyl)acetate]",Neurotropic effect (mean ± SE) Seven Days Df,PC12 cells [1],0.01 ± 0.01
same,Neurotropic effect Seven Days NGF (%),PC12 cells [1],2.2%
same,neurotropic activity (in words),PC12 cells [1]; PC12 cell neurotropic assay,no activity was detected
Dihydro-AY-erythroidine [reference compound],IC50,[3],0.707 µM
C=CCC1CC(=C)C[C@@H](CC(=O)O)C1=C (stereo partly shown) [Compound 9],Neurotropic effect (mean ± SE) Seven Days Df,PC12 cells [1],0.01 ± 0.01
same,Neurotropic effect Seven Days NGF (%),PC12 cells [1],2.2%
same,neurotropic activity (in words),PC12 cells [1]; PC12 cell neurotropic assay,no activity was detected
Picrotoxin [reference compound],IC50,[4],5.92 µM
"C=C(C)CC1CCCC(CC(=O)OC)C1=C (stereo not shown) [Compound 5, Methyl 2-(3-(2-methylallyl)-2-methylenecyclohexyl)acetate]",loss of activity from day two to seven,PC12 cells [1],50%
same,Neurotropic effect (mean ± SE) Seven Days Df,PC12 cells [1],0.20 ± 0.17
same,Neurotropic effect (mean ± SE) Two Days Df,PC12 cells [1],0.42 ± 0.01
same,Neurotropic effect Seven Days NGF (%),PC12 cells [1],43.5%
same,Neurotropic effect Two Days NGF (%),PC12 cells [1],91.3%
same,neurotropic activity (in words),PC12 cells [1]; after seven days of treatment,significant neurotropic activity
same,inducing fast neurite outgrowth (in words),PC12 cells [1],most active
"C=C1C(CC=C(C)C)CCCC1CC(=O)OC (stereo not shown) [Compound 7, Methyl 2-(3-(3-methylbut-2-en-1-yl)-2-methylenecyclohexyl)acetate]",Neurotropic effect (mean ± SE) Seven Days Df,PC12 cells [1],0.20 ± 0.17
same,Neurotropic effect (mean ± SE) Two Days Df,PC12 cells [1],0.12 ± 0.14
same,Neurotropic effect Seven Days NGF (%),PC12 cells [1],43.5%
same,Neurotropic effect Two Days NGF (%),PC12 cells [1],26.1%
same,neurotropic activity (in words),PC12 cells [1]; after seven days of treatment,significant neurotropic activity
same,inducing fast neurite outgrowth (in words),PC12 cells [1],most active
B1,neurite outgrowth Df,"PC12 cells [5]; NGF alone 50 ng/ml, 2 days",0.54
same,neurite outgrowth Df,"PC12 cells [5]; NGF alone 50 ng/ml, 7 days",0.4
same,neurite outgrowth,PC12 cells [5]; low dose NGF 1 ng/ml,10%
same,neurite outgrowth Df,PC12 cells [5]; low dose NGF 1 ng/ml,0.05
same,increase in neurite outgrowth,[6]; NGF 50 ng/ml vs blank control medium,3-4 fold
same,neurite outgrowth length,[6]; [7],700 micrometer
same,ratio between the area covered by neurites and that covered by the DRG ganglia,[6]; [7],9
